{
  "source": "paper PMC6547740",
  "about": "“Potent and specific MTH1 inhibitors targeting gastric cancer” (Cell Death & Disease, 2019)",
  "key": {"HGC-27 cells [1]": {"test_system": "HGC-27 cells", "test": "Colony formation assay, HGC-27", "format": "cell-based, human", "details": "HGC-27, 7 days treatment, compared with DMSO or MI-929", "protocol": "(§1) The day before treatment, cells were seeded into six-well plates at a concentration of 1 × 10^3 cells per well, and then the media were replaced with fresh media containing serial concentrations of candidate compounds. After 7 days of treatment, the cells were fixed with 75% ethanol, stained with 0.1% crystal violet solution and captured by the microscopy (Leica). After that, the crystal violet crystals were dissolved by adding methanol. The absorbance at 595 nm was measured by a BioTek micro plate reader. In the end, the data were analyzed using the GraphPad Prism 5 software."}, "MGC-803 cells [2]": {"test_system": "MGC-803 cells", "test": "Colony formation assay, MGC-803", "format": "cell-based, human", "details": "MGC-803, 7 days treatment, compared with DMSO or MI-929", "protocol": "as §1"}, "MTH1 [3]": {"biological_target": "T1, MTH1 (Homo sapiens, UniProt P36639)", "test": "MTH1 recombinant protein activity / inhibitor screening (malachite green)", "format": "biochemical", "parameters": "His-tag; made in house; host or cells: E. coli BL21(DE3)", "details": "5 nM recombinant MTH1, dGTP substrate, absorbance 630 nm; read-out: IC50 (MTH1 inhibition)", "protocol": "On the basis of the ability of MTH1 in converting dGTP to dGMP and pyrophosphate, and the latter can then be hydrolyzed to […] by inorganic pyrophosphatase, the MTH1 activity was designed to measure the product of […], after its reaction with malachite green and ammonium molybdate(Fig. 2l), the green associated complex was measured at 630 nm by PerkinElmer Envision microplate reader.\nFirstly, the assay buffer (100 mM Tris-acetate at pH 8.0, 40 mM NaCl, 10 mM Mg-acetate, 0.005% Tween 20 and 1 mM DTT) was added into a 96-well plate. Then, 5 nM recombinant human MTH1, […] dGTP and 0.2U/ml […] were added in sequence. After 60 min reaction, the mixture of 0.45 mg/mL malachite green and 4.2% ammonium molybdate in proportion of 3:1 were added. Then, the plates were incubated and shaken at room temperature for another 60 min. The absorbance was measured at 630 nm using the PerkinElmer Envision micro plate reader."}, "MTH1 [4]": {"biological_target": "T1, MTH1", "test": "Cellular thermal shift assay (CETSA), MTH1", "format": "binding", "parameters": "endogenous in cells; host or cells: MGC-803 (human gastric cancer cell line)", "details": "MGC-803 cells, 50 µM compound, heated 10 min from 43 to 61 °C, western blot", "protocol": "Cellular thermal shift assay (CETSA), also known as the target engagement assay was one-way to detect the intracellular interaction ability of compounds with its specific target. Firstly, cells were seeded into T75 culture flasks and cultured overnight. Then, the cells were treated with cell media containing 1‰ DMSO as blank control and candidate compounds for 3–5 h. Next, the cells were collected by centrifugation and resuspended by PBS, then the cells were aliquoted into 7 PCR tubes and heated using PCR instrument for 10 min from 43 to 61 °C. After that, cells were lysed using liquid nitrogen and three repeated cycles of freeze-thawing. Then, samples were centrifuged at 12,000 × g for 20 min at 4 °C. Supernatants were denatured at 100 °C for 10 min and kept at −20 °C until Western Blot analysis."}, "ZIP177 cells": {"test_system": "ZIP177 cells", "test": "MTT cell viability, ZIP177", "format": "cell-based", "details": "Homo sapiens, liver cancer cell line, 72 h", "protocol": "(§2) The cell viability was determined by 3-(4,5-dimethylthiazol-2-yl)-2,5-diphenyltetrazolium bromide (MTT) assay, according to the manufacturer’s instructions. 1 day before treatment, cells were seeded into 96-well plates at a concentration of 2–5 × 10^3 cells per well, followed by treatment with fresh medium containing serial dilutions of candidate compounds for 48 or 72 h, 20 μL of MTT solution (5 mg/mL in PBS) was then added to each well. After treatment, the plates were incubated at 37 °C for another 4 h. Subsequently, the MTT solution was removed and 150 μL of DMSO was added to each well for 10 min, and then the plates were shaken to dissolve the dark blue crystal (formazan), the absorbance was detected at 570 nm using a BioTek microplate reader. The data were analyzed using SPSS 20 software."}, "Het-1A cells": {"test_system": "Het-1A cells", "test": "MTT cell viability, Het-1A", "format": "cell-based", "details": "Homo sapiens, normal esophageal epithelial cell line, 72 h", "protocol": "as §2"}, "MCF-7 cells": {"test_system": "MCF-7 cells", "test": "MTT cell viability, MCF-7", "format": "cell-based", "details": "Homo sapiens, MCF7, breast cancer cell line, 72 h", "protocol": "as §2"}, "L02 cells": {"test_system": "L02 cells", "test": "MTT cell viability, L02", "format": "cell-based", "details": "Homo sapiens, normal liver cell line, 72 h", "protocol": "as §2"}, "TE-1 cells": {"test_system": "TE-1 cells", "test": "MTT cell viability, TE-1", "format": "cell-based", "details": "Homo sapiens, 72 h", "protocol": "as §2"}, "SMMC-7721 cells": {"test_system": "SMMC-7721 cells", "test": "MTT cell viability, SMMC-7721", "format": "cell-based", "details": "Homo sapiens, liver cancer cell line, 72 h", "protocol": "as §2"}, "GES-1 cells": {"test_system": "GES-1 cells", "test": "MTT cell viability, GES-1", "format": "cell-based", "details": "Homo sapiens, GES1, normal gastric epithelial cell line, 72 h", "protocol": "as §2"}, "SGC-7901 cells": {"test_system": "SGC-7901 cells", "test": "MTT cell viability, SGC-7901", "format": "cell-based", "details": "Homo sapiens, gastric cancer cell line, 72 h", "protocol": "as §2"}, "HepG2 cells": {"test_system": "HepG2 cells", "test": "MTT cell viability, HepG2", "format": "cell-based", "details": "Homo sapiens, liver cancer cell line, 72 h", "protocol": "as §2"}, "EC9706 cells": {"test_system": "EC9706 cells", "test": "MTT cell viability, EC9706", "format": "cell-based", "details": "Homo sapiens, esophageal cancer cell line, 72 h", "protocol": "as §2"}, "B16-F10 cells": {"test_system": "B16-F10 cells", "test": "MTT cell viability, B16-F10", "format": "cell-based", "details": "Mus musculus, 72 h", "protocol": "as §2"}, "MGC-803 cells [5]": {"test_system": "MGC-803 cells", "test": "MTT cell viability, MGC-803", "format": "cell-based", "details": "Homo sapiens, gastric cancer cell line, 72 h", "protocol": "as §2"}, "EC109 cells": {"test_system": "EC109 cells", "test": "MTT cell viability, EC109", "format": "cell-based", "details": "Homo sapiens, ECa-109, esophageal cancer cell line, 72 h", "protocol": "as §2"}, "H1975 cells": {"test_system": "H1975 cells", "test": "MTT cell viability, H1975", "format": "cell-based", "details": "Homo sapiens, NCI-H1975, 72 h", "protocol": "as §2"}, "HGC-27 cells [6]": {"test_system": "HGC-27 cells", "test": "MTT cell viability, HGC-27", "format": "cell-based", "details": "Homo sapiens, gastric cancer cell line, 72 h", "protocol": "as §2"}, "pc9 cells": {"test_system": "pc9 cells", "test": "MTT cell viability, pc9", "format": "cell-based", "details": "Homo sapiens, PC-9, 72 h", "protocol": "as §2"}, "HL-7702 cells": {"test_system": "HL-7702 cells", "test": "MTT cell viability, HL-7702", "format": "cell-based", "details": "Homo sapiens, L02, normal liver cell line, 72 h", "protocol": "as §2"}, "MKN45 cells": {"test_system": "MKN45 cells", "test": "MTT cell viability, MKN45", "format": "cell-based", "details": "Homo sapiens, MKN-45, gastric cancer cell line, 72 h", "protocol": "as §2"}, "KYSE-450 cells": {"test_system": "KYSE-450 cells", "test": "MTT cell viability, KYSE-450", "format": "cell-based", "details": "Homo sapiens, esophageal cancer cell line, 72 h", "protocol": "as §2"}},
  "data": [
    {"compound": "C[C@H](Oc1cc(-c2cnn(C3CCNCC3)c2)cnc1N)c1c(Cl)ccc(F)c1Cl", "note": "[(S)-crizotinib]", "values": [
      {"measurement": "colony formation", "setting": "HGC-27 cells [1]", "result": "smaller and fewer colonies"},
      {"measurement": "colony formation", "setting": "MGC-803 cells [2]", "result": "smaller and fewer colonies"}
    ]},
    {"compound": "Cc1ccc(Nc2nc(SCc3cn(CC(=O)NC(=O)Nc4ccccn4)nn3)nc(-c3ccc(Br)cc3)c2C#N)cc1", "note": "[MI-401, 2-(4-((4-(4-bromophenyl)-5-cyano-6-(p-tolylamino)pyrimidin-2-yl)thiomethyl)-1H-1,2,3-triazol-1-yl)-N-(pyridin-2-ylcarbamoyl)acetamide]", "values": [
      {"measurement": "IC50", "setting": "MTH1 [3]", "result": "0.4613 ± 0.00267", "unit": "µM"},
      {"measurement": "temperature of MTH1 degradation", "setting": "MTH1 [4]", "result": 49, "unit": "°C"},
      {"measurement": "melting point", "result": "155 to 156", "unit": "°C"}
    ]},
    {"compound": "COc1ccccc1NC(=O)NC(=O)CSC(=S)N1CCCC1", "note": "[MI-929]", "values": [
      {"measurement": "IC50", "setting": "ZIP177 cells", "result": "> 50", "unit": "µM"},
      {"measurement": "IC50", "setting": "Het-1A cells", "result": "> 50", "unit": "µM"},
      {"measurement": "IC50", "setting": "MTH1 [3]", "result": "> 50", "unit": "µM"},
      {"measurement": "IC50", "setting": "MCF-7 cells", "result": "> 50", "unit": "µM"},
      {"measurement": "temperature of MTH1 degradation", "setting": "MTH1 [4]", "result": 49, "unit": "°C"},
      {"measurement": "IC50", "setting": "L02 cells", "result": "> 50", "unit": "µM"},
      {"measurement": "IC50", "setting": "TE-1 cells", "result": "> 50", "unit": "µM"},
      {"measurement": "IC50", "setting": "SMMC-7721 cells", "result": "> 50", "unit": "µM"},
      {"measurement": "IC50", "setting": "GES-1 cells", "result": "> 50", "unit": "µM"},
      {"measurement": "IC50", "setting": "SGC-7901 cells", "result": "> 50", "unit": "µM"},
      {"measurement": "IC50", "setting": "HepG2 cells", "result": "> 50", "unit": "µM"},
      {"measurement": "IC50", "setting": "EC9706 cells", "result": "> 50", "unit": "µM"},
      {"measurement": "IC50", "setting": "B16-F10 cells", "result": "> 50", "unit": "µM"},
      {"measurement": "IC50", "setting": "MGC-803 cells [5]", "result": "> 50", "unit": "µM"},
      {"measurement": "IC50", "setting": "EC109 cells", "result": "> 50", "unit": "µM"},
      {"measurement": "IC50", "setting": "H1975 cells", "result": "> 50", "unit": "µM"},
      {"measurement": "IC50", "setting": "HGC-27 cells [6]", "result": "> 50", "unit": "µM"},
      {"measurement": "IC50", "setting": "pc9 cells", "result": "> 50", "unit": "µM"},
      {"measurement": "IC50", "setting": "HL-7702 cells", "result": "> 50", "unit": "µM"},
      {"measurement": "IC50", "setting": "MKN45 cells", "result": "> 50", "unit": "µM"},
      {"measurement": "IC50", "setting": "KYSE-450 cells", "result": "> 50", "unit": "µM"}
    ]},
    {"compound": "Nc1nc(NC2CC2)cc(-c2cccc(Cl)c2Cl)n1", "note": "[TH588]", "values": [
      {"measurement": "colony formation", "setting": "HGC-27 cells [1]", "result": "smaller and fewer colonies"},
      {"measurement": "colony formation", "setting": "MGC-803 cells [2]", "result": "smaller and fewer colonies"}
    ]}
  ]
}
